The record followed here is patent publication US11142515B2, “Pyrazolyl-ureas as kinase inhibitors” (RESPIVERT LIMITED, priority 2014, dated 2021).

Series [1] addresses T1, p38 MAPKα isoform (MAPK14) (Homo sapiens, UniProt Q16539).
T1 construct: purchased Life Technologies
The series can be described thus: p38 MAPKα enzyme inhibition (Z-LYTE FRET). Format: biochemical. The note with it: Table 2A; read-out: IC50 Values for Enzyme Inhibition p38 MAPKα. The procedure, abridged: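 Recombinant human MAPK14 (40 ng/mL stock) was preincubated 2 h at RT with compound (stock dilutions 0.0012-40 μg/mL). The Z-LYTE FRET read-out used a MAPKAP-K2-derived peptide, and protease development for 1 h cleaved only non-phosphorylated peptide. Phosphorylation was calculated from the coumarin/fluorescein emission ratio.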

The next series deals with T2, c-Src (Homo sapiens, UniProt P12931).
T2 construct: purchased Life Technologies
The experiment in a line: c-Src enzyme inhibition (Z-LYTE FRET). The series is classed as biochemical. The note with it: Table 2A. The protocol: (§1) The enzyme inhibitory activities of compounds disclosed herein were determined by FRET using synthetic peptides labelled with both donor and acceptor fluorophores (Z-LYTE, Life Technologies, Paisley, UK).
(§2) The relevant enzyme (1000 ng/mL, 1400 ng/mL or 2000 ng/mL respectively, 2.5 μL) was incubated with the test compound (either 40 μg/mL, 12 μg/mL, 4 μg/mL, 1.2 μg/mL, 0.4 μg/mL, 0.12 μg/mL, 0.04 μg/mL, 0.012 μg/mL, 0.004 μg/mL or 0.0012 μg/mL, 2.5 μL each) for 2 h at RT. The FRET peptides (8 μM, 2.5 μL), and appropriate ATP solutions (2.5 μL, 800 μM for c-Src, and 60 μM ATP for HCK and Syk) were then added to the enzyme/compound mixtures and incubated for 1 h at RT. Development reagent (protease, 5 μL) was added for 1 h prior to detection in a fluorescence microplate reader (EnVision, Perkin Elmer).
(§3) In all cases, the site-specific protease cleaves non-phosphorylated peptide only and eliminates the FRET signal. Phosphorylation levels of each reaction were calculated using the ratio of coumarin emission (donor) over fluorescein emission (acceptor), for which low ratios indicate high phosphorylation and high ratios indicate low phosphorylation levels.

The test system of series [2] is TNFα release in d-U937 cells. The experiment in a line: LPS-induced TNFα release in d-U937 cells. Further: relative to 10 µg/mL BIRB-796. Format: cell-based. Conditions: Homo sapiens, dU937; read-out: LPS Induced Release TNFα REC50 (dU937). The protocol: (§4) U937 cells, a human monocytic cell line, were differentiated into macrophage-type cells by incubation with PMA (100-200 ng/mL) for 48 to 72 h. Cells were pre-incubated with final […] concentrations of test compound for 2 h and were then stimulated with LPS (0.1 μg/mL; from E. coli: O111:B4, Sigma) for 4 h. The supernatant was collected for determination of TNFα and IL-8 concentrations by sandwich ELISA (Duo-set, R&D systems). […] The relative 50% effective concentration (REC50) was determined from the resultant concentration-response curve. The inhibition of IL-8 production was calculated at each concentration of test compound by comparison with vehicle control.

In a further series the target is T3, GSK 3α enzyme isoform (Homo sapiens, UniProt P49840).
T3 construct: purchased Life Technologies
The experiment in a line: GSK 3α enzyme inhibition (Z-LYTE FRET). Format: biochemical. Conditions: for IC50: Table 2A, read-out: IC50 Values for Enzyme Inhibition GSK3α. Here is the method:
as §1
The GSK3a protein (500 ng/mL, 2.5 μL) was incubated with the test compound (2.5 μL at either 40 μg/mL, 12 μg/mL, 4 μg/mL, 1.2 μg/mL, 0.4 μg/mL, 0.12 μg/mL, 0.04 μg/mL, 0.012 μg/mL, 0.004 μg/mL or 0.0012 μg/mL) for 2 h at RT. The FRET peptide (8 μM, 2.5 μL), which is a phosphorylation target for GSK3α, and ATP (40 μM, 2.5 μL) was then added to the enzyme/compound mixture and the resulting mixture incubated for 1 h at RT. Development reagent (protease, 5 μL) was added for 1 h prior to detection in a fluorescence microplate reader (EnVision, Perkin Elmer).
as §3

The subject of a further series is d-U937 cells. The experiment in a line: Cell viability: MTT assay in differentiated U937 cells. The series is classed as cell-based, human. Conditions: 10 μg/mL. Here is the method:
Differentiated U937 cells were pre-incubated with each test compound (final concentration 10 μg/mL in 200 μL media indicated below) under two protocols: the first for 4 h in 5% FCS RPMI1640 media and the second in 10% FCS RPMI1640 media for 24 h. The supernatant was replaced with new media (200 μL) and MTT stock solution (10 μL, 5 mg/mL) was added to each well. After incubation for 1 h the media were removed, DMSO (200 μL) was added to each well and the plates were shaken lightly for 1 h prior to reading the absorbance at 550 nm. The percentage loss of cell viability was calculated for each well relative to vehicle (0.5% DMSO) treatment. Consequently an apparent increase in cell viability for drug treatment relative to vehicle is tabulated as a negative percentage.
In general terms: Tetrazolium assays rely on reduction of a dye to a coloured formazan, in cell work by metabolically active cells.

Series [3] deals with IL-8 release in d-U937 cells. The series can be described thus: LPS-induced IL-8 release in d-U937 cells. The series is classed as cell-based. The note with it: Homo sapiens, dU937, LPS 0.1 μg/mL 4 h. Here is the method: as §4
A further series has as its target T4, Syk (Homo sapiens, UniProt P43405).
T4 construct: purchased Life Technologies
The series can be described thus: Syk enzyme inhibition (Z-LYTE FRET). Format: biochemical. The note with it: for IC50: Table 2A. The protocol:
as §1, §2, §3

T3 sequence (P49840 whole entry, canonical isoform): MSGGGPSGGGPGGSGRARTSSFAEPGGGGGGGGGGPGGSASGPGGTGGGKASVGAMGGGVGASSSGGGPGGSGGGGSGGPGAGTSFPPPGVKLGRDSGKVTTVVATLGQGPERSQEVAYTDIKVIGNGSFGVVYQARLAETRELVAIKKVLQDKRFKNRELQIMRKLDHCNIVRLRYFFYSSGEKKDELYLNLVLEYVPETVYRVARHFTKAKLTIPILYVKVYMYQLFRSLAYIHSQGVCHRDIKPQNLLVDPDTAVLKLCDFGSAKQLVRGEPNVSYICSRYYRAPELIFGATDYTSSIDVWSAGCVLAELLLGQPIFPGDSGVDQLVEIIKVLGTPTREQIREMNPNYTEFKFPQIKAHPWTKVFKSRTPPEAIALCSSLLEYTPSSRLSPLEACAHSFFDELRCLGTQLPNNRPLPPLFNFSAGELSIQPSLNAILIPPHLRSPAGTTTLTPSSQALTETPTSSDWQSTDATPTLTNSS
T1 sequence (Q16539 whole entry, canonical isoform): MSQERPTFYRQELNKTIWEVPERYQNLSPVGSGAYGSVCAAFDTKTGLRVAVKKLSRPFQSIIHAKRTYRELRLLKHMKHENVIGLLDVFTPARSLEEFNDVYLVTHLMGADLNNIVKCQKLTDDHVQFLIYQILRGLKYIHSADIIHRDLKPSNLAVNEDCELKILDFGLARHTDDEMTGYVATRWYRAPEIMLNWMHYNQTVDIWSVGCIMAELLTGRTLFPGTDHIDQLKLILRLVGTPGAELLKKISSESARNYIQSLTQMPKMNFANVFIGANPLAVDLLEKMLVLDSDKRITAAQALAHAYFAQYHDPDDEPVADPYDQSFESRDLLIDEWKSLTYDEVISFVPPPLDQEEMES
T2 sequence (P12931 whole entry): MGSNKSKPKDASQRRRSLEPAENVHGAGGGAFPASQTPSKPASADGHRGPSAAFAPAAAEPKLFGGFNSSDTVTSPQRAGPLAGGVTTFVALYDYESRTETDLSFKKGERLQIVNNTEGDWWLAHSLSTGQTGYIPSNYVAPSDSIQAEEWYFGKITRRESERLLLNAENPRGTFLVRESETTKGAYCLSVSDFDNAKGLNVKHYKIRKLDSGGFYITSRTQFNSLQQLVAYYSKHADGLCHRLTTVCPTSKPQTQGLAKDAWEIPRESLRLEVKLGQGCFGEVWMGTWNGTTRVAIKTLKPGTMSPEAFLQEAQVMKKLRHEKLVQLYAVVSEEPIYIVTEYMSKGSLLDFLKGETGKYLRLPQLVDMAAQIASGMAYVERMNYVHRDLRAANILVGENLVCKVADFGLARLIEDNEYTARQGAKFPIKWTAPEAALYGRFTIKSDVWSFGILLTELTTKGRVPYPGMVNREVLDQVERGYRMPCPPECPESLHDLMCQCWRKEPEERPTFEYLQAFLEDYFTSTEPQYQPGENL

In the case of `Cc1cc(-n2nc(C(C)(C)C)cc2NC(=O)Nc2ccc(OCc3ccnc(Nc4cnccn4)c3)c3ccccc23)cs1` (single isomer, unassigned) [Example 31], the IC50 – broadly, the concentration needed to halve the response being measured – is 0.004 µM in series [1]; 0.154 µM at c-Src; 11.3 µM on GSK 3α enzyme isoform; 0.0334 µM in series [3]; over 16.5 µM at Syk. Moreover, the EC50 in series [2] worked out at 0.001 µM. Also, the “MTT Assay Cell viability at time point indicated in d-U937 Cells, 4 h” value (shortened to “MTT Assay Cell viability … in d-U937 Cells, 4 h”) with d-U937 cells was “− (−ve and +ve indicate the value is below and above, respectively, the no significant effect threshold defined as 30% inhibition at 10 μg/mL at the time point indicated)”. Also, the “MTT Assay Cell viability at time point indicated in d-U937 Cells, 24 h” value (“MTT Assay Cell viability … 24 h” for short) in the series with d-U937 cells was “− (−ve and +ve indicate the value is below and above, respectively, the no significant effect threshold defined as 30% inhibition at 10 μg/mL at the time point indicated)”.
Regarding `Cc1ccc(-n2nc(C(C)(C)C)cc2NC(=O)Nc2ccc(OCc3ccnc(Nc4cnccn4)c3)c3ccccc23)cc1` [Example 1, 1-(3-(tert-Butyl)-1-(p-tolyl)-1H-pyrazol-5-yl)-3-(4-((2-(pyrazin-2-ylamino)pyridin-4-yl)methoxy)naphthalen-1-yl)urea], the 50% inhibitory concentration (IC50) in series [1] was 0.025 µM; against c-Src, 0.098 µM; at GSK 3α enzyme isoform, over 16.7 µM; in series [3], 0.013 µM; at Syk it was over 16.7 µM. In series [2], the EC50 was determined as 0.0016 µM. The “inhibitory activity against GSK3a (in words)” value against GSK 3α enzyme isoform is given as “very much weaker than the Reference Compound”. Besides, in the series on d-U937 cells, the “MTT Assay Cell viability … in d-U937 Cells, 4 h” value was “− (−ve and +ve indicate the value is below and above, respectively, the no significant effect threshold defined as 30% inhibition at 10 μg/mL at the time point indicated)”. In addition, the “MTT Assay Cell viability … 24 h” value in the series on d-U937 cells is “− (−ve and +ve indicate the value is below and above, respectively, the no significant effect threshold defined as 30% inhibition at 10 μg/mL at the time point indicated)”. Moreover, the “inhibitory activity against Syk (in words)” value at Syk is given as “very much weaker than the Reference Compound”.
For the molecule `COCCNC(=O)c1cnc(Nc2cc(COc3ccc(NC(=O)Nc4cc(C(C)(C)C)nn4-c4ccc(C)cc4)c4ccccc34)ccn2)cn1` [Example 3], the IC50 was 0.009 µM in series [1]; 0.144 µM against c-Src; over 14.3 µM at GSK 3α enzyme isoform; 0.0088 µM in series [3]; over 14.3 µM at Syk. Moreover, the EC50 in series [2] is 0.0055 µM. Moreover, in the series with d-U937 cells, the “MTT Assay Cell viability … in d-U937 Cells, 4 h” value is “− (−ve and +ve indicate the value is below and above, respectively, the no significant effect threshold defined as 30% inhibition at 10 μg/mL at the time point indicated)”. In addition, in the series on d-U937 cells, the “MTT Assay Cell viability … 24 h” value was “− (−ve and +ve indicate the value is below and above, respectively, the no significant effect threshold defined as 30% inhibition at 10 μg/mL at the time point indicated)”.
Regarding `Cc1ccc(-n2nc(C(C)(C)C)cc2NC(=O)Nc2ccc(OCc3ccnc(Nc4cnc(C)c(C)n4)c3)c3ccccc23)cc1` [Example 4, 1-(3-(tert-Butyl)-1-(p-tolyl)-1H-pyrazol-5-yl)-3-(4-((2-((5,6-dimethylpyrazin-2-yl)amino)pyridin-4-yl)methoxy)naphthalen-1-yl)urea], the IC50 in series [1] was 0.022 µM; on c-Src it was 0.447 µM; on GSK 3α enzyme isoform it was over 4.96 µM; in series [3], 0.0254 µM; at Syk it was over 16 µM. Moreover, the EC50 in series [2] was determined as 0.0256 µM. Further, the “MTT Assay Cell viability … in d-U937 Cells, 4 h” value in the series on d-U937 cells is “− (−ve and +ve indicate the value is below and above, respectively, the no significant effect threshold defined as 30% inhibition at 10 μg/mL at the time point indicated)”. Further, the “MTT Assay Cell viability … 24 h” value with d-U937 cells is “− (−ve and +ve indicate the value is below and above, respectively, the no significant effect threshold defined as 30% inhibition at 10 μg/mL at the time point indicated)”.
Take `Cc1ccc(-n2nc(C(C)(C)C)cc2NC(=O)Nc2ccc(OCc3ccnc(Nc4cnc(CN)cn4)c3)c3ccccc23)cc1` [Example 5, 1-(4-((2-((5-(Aminomethyl)pyrazin-2-yl)amino)pyridin-4-yl)methoxy)naphthalen-1-yl)-3-(3-(tert-butyl)-1-(p-tolyl)-1H-pyrazol-5-yl)urea]: the IC50 in series [1] was under 0.00048 µM; on c-Src, under 0.00048 µM; on GSK 3α enzyme isoform, 2.77 µM; in series [3], 0.0024 µM; against Syk it was over 15.9 µM. The EC50 in series [2] was 0.0028 µM. Further, the “MTT Assay Cell viability … in d-U937 Cells, 4 h” value with d-U937 cells was “− (−ve and +ve indicate the value is below and above, respectively, the no significant effect threshold defined as 30% inhibition at 10 μg/mL at the time point indicated)”. The “MTT Assay Cell viability … 24 h” value in the series on d-U937 cells is “+ (−ve and +ve indicate the value is below and above, respectively, the no significant effect threshold defined as 30% inhibition at 10 μg/mL at the time point indicated)”.
In the case of `CC(=O)NCc1cnc(Nc2cc(COc3ccc(NC(=O)Nc4cc(C(C)(C)C)nn4-c4ccc(C)cc4)c4ccccc34)ccn2)cn1` [Example 6, N-((5-((4-(((4-(3-(3-(tert-butyl)-1-(p-tolyl)-1H-pyrazol-5-yl)ureido)naphthalen-1-yl)oxy)methyl)pyridin-2-yl)amino)pyrazin-2-yl)methyl)acetamide], the 50% inhibitory concentration (IC50) in series [1] was found to be 0.003 µM; against c-Src, 0.024 µM; on GSK 3α enzyme isoform, 0.922 µM; in series [3] it was 0.0907 µM; at Syk, 7.52 µM. Also, in series [2], the EC50 came to 0.0085 µM. Moreover, in the series on d-U937 cells, the “MTT Assay Cell viability … in d-U937 Cells, 4 h” value is “− (−ve and +ve indicate the value is below and above, respectively, the no significant effect threshold defined as 30% inhibition at 10 μg/mL at the time point indicated)”. Further, in the series with d-U937 cells, the “MTT Assay Cell viability … 24 h” value is “− (−ve and +ve indicate the value is below and above, respectively, the no significant effect threshold defined as 30% inhibition at 10 μg/mL at the time point indicated)”.
As for `CNC(=O)c1cnc(Nc2cc(COc3ccc(NC(=O)Nc4cc(C(C)(C)C)nn4-c4ccc(C)cc4)c4ccccc34)ccn2)cn1` [Example 7, 5-((4-(((4-(3-(3-(tert-Butyl)-1-(p-tolyl)-1H-pyrazol-5-yl)ureido)naphthalen-1-yl)oxy)methyl)pyridin-2-yl)amino)-N-methylpyrazine-2-carboxamide], the concentration for half-maximal inhibition (IC50) in series [1] was 0.015 µM; against c-Src it was 0.358 µM; on GSK 3α enzyme isoform, over 15.2 µM; in series [3] it was 0.0167 µM; at Syk, over 15.2 µM. In series [2], the EC50 turned out to be 0.0107 µM. Moreover, the “MTT Assay Cell viability … in d-U937 Cells, 4 h” value in the series on d-U937 cells was “+ (−ve and +ve indicate the value is below and above, respectively, the no significant effect threshold defined as 30% inhibition at 10 μg/mL at the time point indicated)”. For the same molecule, the “MTT Assay Cell viability … 24 h” value in the series on d-U937 cells was “+ (−ve and +ve indicate the value is below and above, respectively, the no significant effect threshold defined as 30% inhibition at 10 μg/mL at the time point indicated)”.
